These results are taken from US20220218715A1, “NOVEL USE OF PYRROLO-PYRIDINE DERIVATIVE COMPOUND FOR PREVENTION AND/OR TREATMENT OF CANCER” (VORONOI CO., LTD., priority 2019, published 2022).

Molecules are shown by their SMILES.

One experiment deals with PC-9 lung cancer cells. The experiment can be described thus: Anticancer effect in mouse model with PC-9 lung cancer cells. The format is in vivo, Balb/c Nude Mice. Conditions: PC-9 model; singular treatment with EGFR targeting drug, PO QD (Gefitinib 10 mg/kg, Osimertinib 3 mg/kg). The method, then:
(§1) The PC-9 cell line was purchased from NanJing Cobioer Biological Technology Co., Ltd. Cells were kept in RPMI-1640 containing 10% FBS, and cultured in a 37° C. humidified cell culture incubator at 5% C2. All animal experiments were carried out according to the Animal Use and Management Guidelines of Shanghai Medicilon Inc. Under sterile conditions, 2×10^6 PC-9 tumor cells (0.1 mL, cell:Matrigel®=1:1) was administered to the right waist of each animal by S.C. administration. Tumor size and animal body weight were measured twice weekly, and clinical symptoms were recorded daily. The mice will be administered individually according to most recent body weight. The tumors were measured using calipers using two measurements, length (a) and width (b). The volume of the tumors was calculated individually as follows, from the two measured diameters of the tumors: tumor volume (mm^3)=(a×b^2)/2.

In experiment [1] the test system is NCI-H1975 lung cancer cells. The experiment can be described thus: Anticancer effect in mouse model with NCI-H1975 lung cancer cells. The format is in vivo, Balb/c Nude Mice. Conditions: singular treatment with Osimertinib 3.5 mg/kg PO QD. The method, then: as §1, with “NCI-H1975” for “PC-9”, “the Institute of Biochemistry and Cell Biology (Shanghai Institutes for” for “NanJing Cobioer”, “Sciences, CAS).” for “Technology Co., Ltd.”, “CO2.” for “C2.”, “Under sterile conditions, 2×10^6 PC-9 tumor cells (0.1 mL, cell:Matrigel®=1:1) was administered to the right waist of each animal by S.C. administration.” left out

In the case of `C=CC(=O)Nc1cc(Nc2nccc(-c3cn(C)c4ccccc34)n2)c(OC)cc1N(C)CCN(C)C` [Osimertinib, reference compound], the “cancer cell regrowth during treatment” value (with PC-9 lung cancer cells; in experiment [1]) was “early regrowth of cancer cells was observed” throughout. `COc1cc2ncnc(Nc3ccc(F)c(Cl)c3)c2cc1OCCCN1CCOCC1` [Gefitinib, reference compound]: the “cancer cell regrowth during treatment” value in the experiment on PC-9 lung cancer cells is recorded as “early regrowth of cancer cells was observed”.
